Reference: patent publication US5306812A, “Immunoglobulin-binding polypeptides” (The Regents of the University of California, priority 1990, dated 1994)
Where no end group is shown, it is not given here.

Columns and labels:
[1] = system: murine monoclonal antibodies; test: ELISA: binding of solid-phase CD4 peptide to murine monoclonal antibodies; parameters: species or system mouse; conditions: compared with p21-38 and p21-49 or with background
Method: The plate was maintained for six hours at 37 degrees (37° C.) on a rotating platform to allow the peptide to adhere to the wells and form solid supports. After aspirating the excess liquid from the wells, 200 ul of washing solution containing TWEEN 20 (0.5% polyoxyethylenesorbitan monolaurate) in phosphate buffered saline (0.5M sodium chloride, 0.01M sodium phosphate at pH 7.2; PBS) was admixed to each well and immediately removed by aspiration. After aspirating the excess liquid from the wells 200 ul of blocking solution consisting of 1% bovine serum albumin (BSA) in phosphate buffered saline at pH 7.4 was admixed to each well, and the wells maintained at room temperature for one hour. The wells were washed with 200 ul a solution containing 0.5% TWEEN-20 (Polyoxyethylenesorbitan monolaurate) in PBS and the wash solution immediately removed by aspiration.
A first antibody, either a murine monoclonal antibody or a purified human myeloma protein was diluted to approximately 80 ug per ml in binding buffer consisting of 1% BSA and 0.5% TWEEN 20 (polyoxyethylenesorbitan monolaurate) in PBS and then various amounts, depending on the final antibody concentration desired, were admixed to each well and the wells maintained at room temperature for 3 or 4 hours in a humidified atmosphere. The wells were then washed 6 times with washing buffer and the excess liquid removed by aspiration.
50 ul of a horse radish peroxidase (HRP)-conjugated anti-mouse Ig secondary antibody (Cappel, Cochranvile, Pa.) or HRP-conjugated antihuman Ig (Sigma, St. Louis, Mo.) diluted 1:10,000 and 1:1,500, respectively, in binding buffer supplemented with 15% heat inactivated calf serum, was then admixed to each well. The wells were maintained for 1 hour at room temperature and then washed several times with washing buffer. 100 ul of freshly prepared substrate, prepared by adding 4 mg of 0-phenylendiamine and 4 ul of a 30% solution of hydrogen peroxide to 10 ml of a buffer containing 0.1M citric acid and 0.2M dibasic sodium phosphate at pH 5.0. were admixed to each well. The wells were then maintained (incubated) for 30 minutes at room temperature in the dark. The reaction was stopped by adding 25 ul per well of a stop buffer consisting of aqueous 4N H2 SO4. The amount of colored reaction product produced was determined by measuring the absorbance at 492 nanometers (nm).
Each peptide's ability to bind mouse monoclonal antibodies was determined using the ELISA assay described in Example 1B.

[2] = system: binding of peptide p21-49 to immunoglobulin (monoclonal antibodies 62 and OKT4A); test: ELISA: binding of p21-49 to immunoglobulins in the presence of dextran sulfate; parameters: species or system murine; conditions: dextran sulfate 0.01 ug/ml to 50 ug/ml; both monoclonal antibody 62 (anti-thyroglobulin) and OKT4A (anti-CD4)
Method: The binding of peptide p21-49 to various immunoglobulins was determined in the presence of varying concentration of dextran sulfate. Briefly, peptide p21-49 was affixed to the wells of microliter plates as described in Example 1B. Dextran sulfate was then admixed to individual wells at a final concentration ranging from 0.01 ug/ml to 50 ug/ml. The first antibody, either a murine monoclonal antibody immunospecific for thyroglobulin or a murine monoclonal antibody immunospecific for CD4 protein was diluted to approximately 4 ug/ml in binding buffer and admixed to each well. The wells were maintained at room temperature for 4 hours in a humidified atmosphere. The wells were then washed 6 times with washing buffer and the excess liquid removed by aspiration. The assay was completed according to Example 1B.

Substance	relative binding of CD4 peptides (FIG. 15) [1]	inhibition of peptide p21-49 binding to immunoglobulin (FIG. 7) [2]
SIQFHWKNSNQIKILG [p 23-38, SIQ FHWKN SNQIK ILG]	comparable binding with that of p21-38 and p21-49	–
IQFHWKNSNQIKILG [p 24-38, IQ FHWKN SNQIK ILG]	comparable binding with that of p21-38 and p21-49	–
KSIQFHWKNSNQIKILG [p 22-38, KSIQ FHWKN SNQIK ILG]	comparable binding with that of p21-38 and p21-49	–
KKSIQFHWKNSNQIKIL [p 21-37, KKSIQ FHWKN SNQIK IL]	comparable binding with that of p21-38 and p21-49	–
dextran sulfate	–	inhibits the binding
